# Reference: patent US10597388B2, “Pyridazinone herbicides” (FMC CORPORATION, priority 2014, dated 2020)
# What was measured:
# Experiment in all cases: Test C greenhouse herbicide test, pre- and postemergence
# Type in all cases: in vivo
# [1] = test system: galium (catchweed bedstraw, Galium aparine)
# How it was run: (§1)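 Each species was treated both before emergence, in a loam–sand soil mix, and after emergence, as 1- to 4-leaf seedlings in peat-based potting medium. Plants stayed in the greenhouse 13 to 15 d, then were scored from 0 (no effect) to 100 (complete control) relative to controls.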
# [2] = test system: ryegrass, Italian (Italian ryegrass, Lolium multiflorum)
# How it was run: as §1
# [3] = test system: corn (Zea mays)
# How it was run: as §1
# [4] = test system: barnyardgrass (Echinochloa crus-galli)
# How it was run: as §1
# [5] = test system: pigweed (Amaranthus retroflexus)
# How it was run: as §1
# [6] = test system: lambsquarters (Chenopodium album)
# How it was run: as §1
# [7] = test system: crabgrass, large (large crabgrass, Digitaria sanguinalis)
# How it was run: as §1
# [8] = test system: waterhemp (common waterhemp, Amaranthus rudis)
# How it was run: as §1
# [9] = test system: blackgrass (Alopecurus myosuroides)
# How it was run: as §1
# [10] = test system: velvetleaf (Abutilon theophrasti)
# How it was run: as §1
# [11] = test system: foxtail, giant (giant foxtail, Setaria faberii)
# How it was run: as §1
# [12] = test system: morningglory (Ipomoea coccinea)
# How it was run: as §1
# [13] = test system: oilseed rape (Brassica napus)
# How it was run: as §1
# [14] = test system: wheat (winter wheat, Triticum aestivum)
# How it was run: as §1
# [15] = test system: ragweed (common ragweed, Ambrosia elatior)
# How it was run: as §1
# [16] = Postemergence, 31 g ai/ha, 0 to 100 scale (0 no effect, 100 complete control)
# [17] = Postemergence, 125 g ai/ha, scale 0 to 100, 0 is no effect, 100 is complete control
# [18] = Postemergence, 250 g ai/ha, scale 0 to 100, 0 no effect, 100 complete control, 13 to 15 d
# [19] = Preemergence, 31 g ai/ha, scale 0 to 100, 0 is no effect, 100 is complete control
# [20] = Preemergence, 62 g ai/ha, scale 0 to 100, 0 is no effect, 100 is complete control
# [21] = Preemergence, 125 g ai/ha, scale 0 to 100, 0 is no effect, 100 is complete control
# [22] = Preemergence, 250 g ai/ha, scale 0 to 100, 0 no effect, 100 complete control
# [23] = postemergence, 62 g ai/ha, scale 0 to 100, 0 no effect, 100 complete control
structure (smiles),measurement,setting,value
Cc1ccc2sc(C)c(-c3c(OC(=O)OC(C)C)c(C)nn(C)c3=O)c2c1 [Compound 66],Galium plant response rating,[1]; [16],90
same,"Plant response rating, Galium",[1]; [17],95
same,"Plant response rating, Galium",[1]; [18],95
same,"Plant response rating, Galium",[1]; [19],90
same,"Plant response rating, Galium",[1]; [20],90
same,"Plant response rating, Galium",[1]; [21],95
same,Galium plant response rating,[1]; [22],98
same,Galium plant response rating,[1]; [23],95
same,"Ryegrass, Italian plant response rating",[2]; [16],60
same,"Plant response rating, Ryegrass, Italian",[2]; [17],85
same,"Plant response rating, Ryegrass, Italian",[2]; [18],85
same,"Plant response rating, Ryegrass, Italian",[2]; [19],55
same,"Plant response rating, Ryegrass, Italian",[2]; [20],50
same,"Plant response rating, Ryegrass, Italian",[2]; [21],80
same,"Ryegrass, Italian plant response rating",[2]; [22],90
same,"Ryegrass, Italian plant response rating",[2]; [23],80
same,Corn plant response rating,[3]; [16],0
same,"Plant response rating, Corn",[3]; [17],5
same,"Plant response rating, Corn",[3]; [18],25
same,"Plant response rating, Corn",[3]; [19],0
same,"Plant response rating, Corn",[3]; [20],0
same,"Plant response rating, Corn",[3]; [21],0
same,Corn plant response rating,[3]; [22],0
same,Corn plant response rating,[3]; [23],0
same,Barnyardgrass plant response rating,[4]; [16],15
same,"Plant response rating, Barnyardgrass",[4]; [17],30
same,"Plant response rating, Barnyardgrass",[4]; [18],35
same,"Plant response rating, Barnyardgrass",[4]; [19],0
same,"Plant response rating, Barnyardgrass",[4]; [20],20
same,"Plant response rating, Barnyardgrass",[4]; [21],40
same,Barnyardgrass plant response rating,[4]; [22],70
same,Barnyardgrass plant response rating,[4]; [23],20
same,Pigweed plant response rating,[5]; [16],95
same,"Plant response rating, Pigweed",[5]; [17],100
same,"Plant response rating, Pigweed",[5]; [18],100
same,"Plant response rating, Pigweed",[5]; [19],100
same,"Plant response rating, Pigweed",[5]; [20],100
same,"Plant response rating, Pigweed",[5]; [21],100
same,Pigweed plant response rating,[5]; [22],100
same,Pigweed plant response rating,[5]; [23],98
same,Lambsquarters plant response rating,[6]; [16],90
same,"Plant response rating, Lambsquarters",[6]; [17],100
same,"Plant response rating, Lambsquarters",[6]; [18],100
same,"Plant response rating, Lambsquarters",[6]; [19],80
same,"Plant response rating, Lambsquarters",[6]; [20],85
same,"Plant response rating, Lambsquarters",[6]; [21],85
same,Lambsquarters plant response rating,[6]; [22],98
same,Lambsquarters plant response rating,[6]; [23],100
same,"Crabgrass, Large plant response rating",[7]; [16],25
same,"Plant response rating, Crabgrass, Large",[7]; [17],35
same,"Plant response rating, Crabgrass, Large",[7]; [18],45
same,"Plant response rating, Crabgrass, Large",[7]; [19],75
same,"Plant response rating, Crabgrass, Large",[7]; [20],65
same,"Plant response rating, Crabgrass, Large",[7]; [21],75
same,"Crabgrass, Large plant response rating",[7]; [22],85
same,"Crabgrass, Large plant response rating",[7]; [23],30
same,Waterhemp plant response rating,[8]; [16],98
same,"Plant response rating, Waterhemp",[8]; [17],90
same,"Plant response rating, Waterhemp",[8]; [18],100
same,"Plant response rating, Waterhemp",[8]; [19],85
same,"Plant response rating, Waterhemp",[8]; [20],90
same,"Plant response rating, Waterhemp",[8]; [21],100
same,Waterhemp plant response rating,[8]; [22],100
same,Waterhemp plant response rating,[8]; [23],90
same,Blackgrass plant response rating,[9]; [16],10
same,"Plant response rating, Blackgrass",[9]; [17],40
same,"Plant response rating, Blackgrass",[9]; [18],60
same,"Plant response rating, Blackgrass",[9]; [19],10
same,"Plant response rating, Blackgrass",[9]; [20],30
same,"Plant response rating, Blackgrass",[9]; [21],35
same,Blackgrass plant response rating,[9]; [22],30
same,Blackgrass plant response rating,[9]; [23],15
same,Velvetleaf plant response rating,[10]; [16],55
same,"Plant response rating, Velvetleaf",[10]; [17],85
same,"Plant response rating, Velvetleaf",[10]; [18],95
same,"Plant response rating, Velvetleaf",[10]; [19],15
same,"Plant response rating, Velvetleaf",[10]; [20],60
same,"Plant response rating, Velvetleaf",[10]; [21],70
same,Velvetleaf plant response rating,[10]; [22],85
same,Velvetleaf plant response rating,[10]; [23],75
same,"Foxtail, Giant plant response rating",[11]; [16],40
same,"Plant response rating, Foxtail, Giant",[11]; [17],65
same,"Plant response rating, Foxtail, Giant",[11]; [18],80
same,"Plant response rating, Foxtail, Giant",[11]; [19],70
same,"Plant response rating, Foxtail, Giant",[11]; [20],75
same,"Plant response rating, Foxtail, Giant",[11]; [21],80
same,"Foxtail, Giant plant response rating",[11]; [22],85
same,"Foxtail, Giant plant response rating",[11]; [23],55
same,Morningglory plant response rating,[12]; [16],90
same,"Plant response rating, Morningglory",[12]; [17],100
same,"Plant response rating, Morningglory",[12]; [18],100
same,"Plant response rating, Morningglory",[12]; [19],80
same,"Plant response rating, Morningglory",[12]; [20],85
same,"Plant response rating, Morningglory",[12]; [21],80
same,Morningglory plant response rating,[12]; [22],90
same,Morningglory plant response rating,[12]; [23],95
same,Oilseed Rape plant response rating,[13]; [16],0
same,"Plant response rating, Oilseed Rape",[13]; [17],10
same,"Plant response rating, Oilseed Rape",[13]; [18],0
same,"Plant response rating, Oilseed Rape",[13]; [19],0
same,"Plant response rating, Oilseed Rape",[13]; [20],0
same,"Plant response rating, Oilseed Rape",[13]; [21],0
same,Oilseed Rape plant response rating,[13]; [22],5
same,Oilseed Rape plant response rating,[13]; [23],10
same,Wheat plant response rating,[14]; [16],0
same,"Plant response rating, Wheat",[14]; [17],0
same,"Plant response rating, Wheat",[14]; [18],0
same,"Plant response rating, Wheat",[14]; [19],0
same,"Plant response rating, Wheat",[14]; [20],0
same,"Plant response rating, Wheat",[14]; [21],0
same,Wheat plant response rating,[14]; [22],40
same,Wheat plant response rating,[14]; [23],0
same,Ragweed plant response rating,[15]; [16],85
same,"Plant response rating, Ragweed",[15]; [17],90
same,"Plant response rating, Ragweed",[15]; [18],100
same,"Plant response rating, Ragweed",[15]; [19],75
same,"Plant response rating, Ragweed",[15]; [20],85
same,"Plant response rating, Ragweed",[15]; [21],90
same,Ragweed plant response rating,[15]; [22],95
same,Ragweed plant response rating,[15]; [23],85
